Patent publication US5380729A, “12-hetero substituted 6,11-ethano-6,11-dihydrobenzo (b) quinolizinium salts and compositions and method of use thereof” (Sterling Winthrop Inc., priority 1993, dated 1995)

Legend:
[1] = target: PCP recognition sites; assay: [3H]TCP Radioreceptor Assay (internal screen); type: binding, rat (male Sprague-Dawley; settings: rat whole brain membranes, room temperature, 25 min; for Ki: ~1 nM [3H]TCP
Description: [^3 H]TCP Radioreceptor Assay (internal screen)
[^3 H]TCP binding to PCP recognition sites was performed as described by Vignon et al. Brain Research 1983, 280, 194°197. Male Sprague-Dawley rats were sacrificed by decapitation, and whole brains were homogenized in 10 volumes (wt/vol) of cold Tris-HCl buffer (50 mM, pH 7.7) using a Brinkmann Polytron (setting 6, 30 sec). The homogenate was centrifuged at 40,000×g for 10 min at 4° C. The supernatant was decanted, and the homogenization and centrifugation steps were repeated twice as described above. Following this, the pellet was resuspended in Tris-HCl (5 mM, pH 7.7) at a tissue concentration of 0.5°0.75 g/ml, and one ml aliquots were frozen at -70° C. until use. The binding characteristics for PCP recognition sites were not altered by the freezing of membrane suspensions.
On the day of the assay, membrane aliquots were thawed, resuspended in fresh 5 mM Tris-HCl buffer at a tissue concentration of 1 mg/ml, and stored on ice until use. Each assay tube contained 100 μl of [^3 H]TCP at a final concentration of approximately 1 nM, 100 μl of various concentrations of the compounds of interest, 500 μl of the tissue suspension and 300 of buffer to a final assay volume of 1 ml and a final protein concentration of 0.5 mg/tube. Non-specific binding was defined by addition of a final concentration of 100 μM PCP to blank tubes. All tubes were incubated at room temperature for 25 min before termination of the reaction by rapid filtration over Whatman GF/B glass fiber filters that had been presoaked in a solution of 0.5% polyethylenimine for at least 1 hr prior to use. Filters were washed with three 4 ml volumes of cold Tris buffer. Following addition of scintillation cocktail, the amount of bound radioactivity was determined by liquid scintillation spectrometry using a Beckman LS 5000TA liquid scintillation counter with an efficiency for tritium of approximately 55% . Inhibition constants (Ki values) were calculated using the EBDA/LIGAND program (McPherson, J. Pharmacol. Meth. 1985, 14, 213-228), purchased from Elsevier/Biosoft, Inc. Results are reported as Ki values or as a percent (%) inhibition of binding at 10

[2] = system: NMDA-induced neurotoxicity in cultured cortical neurons; assay: Antagonism of NMDA-induced neurotoxicity in cultured neurons (LDH release); type: cell-based, mouse (Swiss-Webster); settings: 500 μM NMDA, 30 minutes, LDH activity at 24 hours, mouse cortical neurons
Description: Antagonism of NMDA-induced Neurotoxicityin Cultured Neurons
Preparation of Cultured Cortical Neurons
Pregnant, Swiss-Webster mice were obtained from Taconic Farms (Germantown, New York) and sacrificed 16 days post conception. Fetuses were removed and placed in a sterile dish containing Hank's balanced salt solution (HBSS), pH 7.4. Brain cortices were dissected, meninges were removed, the tissue was minced and placed into a solution of HBSS containing 0.25% (w/v) trypsin at 37° C. for 15 minutes. Tissue was then triturated with a sterile pasteur pipet, diluted with minimal essential media (Gibco 330-1430), pH 7.4, supplemented with 10% horse serum, 10% fetal calf serum, 2 mM 1-glutamine, 21 mM d-glucose, 2.2 g/L sodium bicarbonate, 1000 u/ml penicillin, and 1,000 μg/ml streptomycin. Cells were plated onto Falcon primaria 96 well plates at a final density of 50,000 cells/well and incubated at 37° C. in the presence of 5% (v/v) carbon dioxide. After 5 days, plating media was replaced with maintenance media containing minimal essential media (Gibco 330- 1430), pH 7.4, supplemented with 10% horse serum, 10% 1-glutamine, 21 mM d-glucose, 2.2 g/l sodium bicarbonate,1,000 U/ml penicillin, 1,000 μg/ml streptomycin, and 10 μM cytosine arabinoside. On days 7 and 10, media was replaced with maintenance media as above lacking the cytosine arabinoside. Experiments were conducted on day 13.
Neuroprotection Assessment
Day 13 cultured cortical neurons were washed twice with minimal essential media, pH 7.4 and then exposed for 30 minutes to 500 μM N-methyl-D-aspartic acid (NMDA) with or without varying concentrations of test agents. Dizocilpine (MK-801) at a final concentration of 10 μM MK-801 was routinely included as a positive control. MK-801 and test agents were prepared in minimal essential media supplemented with 21 mM d-glucose and 2.2 g/L sodium bicarbonate (MEM). After 30 minutes, media was replaced with MEM alone. Exposure of neurons to test agents was limited to the NMDA treatment period. Twenty-four hours after removal of NMDA, an aliquot of media from each well was removed for assessment of cell injury by determining lactate dehydrogenase (LDH) activity by. the method of Wroblewski and LaDue Proc. Soc. Exp. Biol. Med. 1955, 90, 210-213. The results are expressed as an IC50 (in nM) value (concentration causing 50% inhibition) for the antagonism of NMDA--inducedneurotoxicity.

[3] = Comparison of separate enantiomers with the racemate (test not specified); settings: (-)-enantiomer vs (+)-enantiomer or racemate
[4] = system: PCP recognition sites; assay: [3H]TCP Radioreceptor Assay (external screen); type: binding, rat (whole rat forebrain membranes); settings: @ 10 μM; rat forebrain membranes; 25° C., 60 minutes
Description: Representative compounds of the invention were also tested in an external [^3 H]TCP radioreceptor assay using the following protocol:
[^3 H]TCP Radioreceptor Assay (external screen)
A procedure similar to that described above for the [^3 H]TCP radioreceptor assay (internal screen) was utilized except that the whole rat forebrain membranes were incubated at 25° C. for 60 minutes rather than at room temperature for 25 minutes, before termination of the reaction. The results are reported as a percent (%) inhibition of binding at 10 μM.

Structure (SMILES) | Ki [1] [nM] | IC50 ([2]; Cortical neurone) [nM] | IC50 [2] [nM] | Percent inhibition, [3H]TCP (external screen) [4] [%] | also measured
CCOC1(OCC)C2c3ccccc3C(C1Cl)[n+]1ccccc12 (single isomer, unassigned) [Example 41, 6,11-ethano-12,12-diethoxy-13-chloro-6,11-dihydrobenzo[b]quinolizinium bromide] | 67 | 445 |  |  | 
CCOC1(OCC)C2c3ccccc3C([n+]3ccccc32)C1(C)C (single isomer, unassigned; (-)) [Example 12(c), (-)-12,12-diethoxy-13,13-dimethyl-6,11-ethano-6,11-dihydrobenzo[b]quinolizinium chloride. 1/2-7/4 hydrate] |  |  | 26 |  | Ki ([1]; hydrate): 4.03 nM; potency compared to the (+)-enantiomer (Example 13(c)) or the racemate (Example 2) [3]: more potent; side effects compared to the (+)-enantiomer (Example 13(c)) or the racemate (Example 2) [3]: fewer side effects
CCOC1(OCC)C2c3ccccc3C([n+]3ccccc32)C1(C)C.[O-][Cl+3]([O-])([O-])[O-] (stereo not shown) [1(a), 12,12-diethoxy-13,13-dimethyl-6,11-ethano-6,11-dihydrobenzo[b]quinolizinium perchlorate] | 8.4 | 17 |  |  | 
CCOC1(OCC)C2c3c(OC)cccc3C([n+]3ccccc32)C1(C)C (stereo not shown) [19(d), 10-methoxy-12,12-diethoxy-13,13-dimethyl-6,11-ethano-6,11-dihydrobenzo[b]quinolizinium chloride·3/2 hydrate] |  | 21.8 |  |  | Ki ([1]; hydrate): 10.4 nM
CCOC1(OCC)CC2c3ccccc3C1c1cccc[n+]12 (stereo not shown) [28(b), 6,11-ethano-12,12-diethoxy-6,11-dihydrobenzo[b]quinolizinium chloride] | 4270 | 95500 |  |  | 
CCOC1(OCC)CC2c3ccccc3C1(C)c1cccc[n+]12.[O-][Cl+3]([O-])([O-])[O-] (stereo not shown) [63(c), 11-Methyl-12,12-diethoxy-6,11-ethano-6,11-dihydrobenzo[b]quinolizinium perchlorate] | 9300 |  |  | 0 | 
CCOC1(OCC)C2c3c(C)ccc(C)c3C(C1C)[n+]1ccccc12.[O-][Cl+3]([O-])([O-])[O-] (stereo not shown) [63(e), 7,10-Dimethyl-12,12-diethoxy-13-methyl-6,11-ethano-6,11-dihydrobenzo[b]quinolizinium perchlorate] | 255 |  |  | 65 | 
CCOC1(OCC)CC2c3c(C)cccc3C1c1cccc[n+]12.[O-][Cl+3]([O-])([O-])[O-] (stereo not shown) [63(f), 7-Methyl-12,12-diethoxy-6,11-ethano-6,11-dihydrobenzo[b]quinolizinium perchlorate] | 7430 |  |  | 34 | 
CCOC1(OCC)CC2c3ccc(C)cc3C1c1cccc[n+]12.[O-][Cl+3]([O-])([O-])[O-] (stereo not shown) [63(g), 9-Methyl-12,12-diethoxy-6,11-ethano-6,11-dihydrobenzo[b]quinolizinium perchlorate] |  |  |  | 0 | Percent inhibition, [3H]TCP (internal screen) ([1]; @ 10 μM): 68%
CCOC1(OCC)CC2c3c(C)ccc(C)c3C1c1cccc[n+]12.[O-][Cl+3]([O-])([O-])[O-] (stereo not shown) [63(h), 7,10-Dimethyl-12,12-diethoxy-6,11-ethano-6,11-dihydrobenzo[b]quinolizinium perchlorate] |  |  |  | 52 | 
CCOC1(OCC)CC2c3cc(C)c(C)cc3C1c1cccc[n+]12.[O-][Cl+3]([O-])([O-])[O-] (stereo not shown) [63(i), 8,9-Dimethyl-12,12-diethoxy-6,11-ethano-6,11-dihydrobenzo[b]quinolizinium perchlorate] | 2260 |  |  | 35 | 
CCOC1(OCC)C2c3ccccc3C([n+]3ccccc32)C1(C)C (stereo not shown) [Example 2, 12,12-diethoxy-13,13-dimethyl-6,11-ethano-6,11-dihydrobenzo[b]quinolizinium chloride-1/4 H2 O] | 5.3 | 30 to 50 |  |  | 
CCOC1(OCC)C2c3c(Br)cccc3C([n+]3ccccc32)C1(C)C.[O-][Cl+3]([O-])([O-])[O-] (stereo not shown) [Example 29, 6,11-ethano-12,12-diethoxy-13,13-dimethyl-10-bromo-6,11-dihydrobenzo[b]quinolizinium perchlorate] | 132 |  | 1040 |  | 
CCOC1(OCC)C2c3cc(Br)ccc3C([n+]3ccccc32)C1(C)C.[O-][Cl+3]([O-])([O-])[O-] (stereo not shown) [Example 35, 6,11-ethano-12,12-diethoxy-13,13-dimethyl-9-bromo-6,11-dihydrobenzo[b]quinolizinium perchlorate] | 61.5 |  | 173 |  | 
CCOC1(OCC)C2c3ccccc3C(C1C)[n+]1ccccc12.[O-][Cl+3]([O-])([O-])[O-] (stereo not shown) [Example 38, 6,11-ethano-12,12-diethoxy-13-methyl-6,11-dihydrobenzo[b]quinolizinium perchlorate] | 33.8 |  | 1160 |  | 
CCCOC1(OCCC)C2c3ccccc3C([n+]3ccccc32)C1(C)C.[O-][Cl+3]([O-])([O-])[O-] (stereo not shown) [Example 39, 6,11-ethano-12,12-dipropoxy-13,13-dimethyl-6,11-dihydrobenzo[b]quinolizinium perchlorate] | 11.5 |  | 85 |  | 
CCOC1(OCC)C2c3cc([N+](=O)[O-])ccc3C([n+]3ccccc32)C1(C)C.[O-][Cl+3]([O-])([O-])[O-] (stereo not shown) [Example 46, 6,11-ethano-12,12-diethoxy-13,13-dimethyl-9-nitro-6,11-dihydrobenzo[b]quinolizinium perchlorate] | 2760 |  | 15300 |  | 
CCOC1(OCC)C2(C)c3ccccc3C([n+]3ccccc32)C1(C)C.[O-][Cl+3]([O-])([O-])[O-] (stereo not shown) [Example 51, 6,11-ethano-12,12-diethoxy-13,13-dimethyl-11-methyl-6,11-dihydrobenzo[b]quinolizinium perchlorate] | 11.3 | 32.4 |  |  | 
